Publication PMC6327987, “Synthesis and biological evaluation of novel N^9-heterobivalent β-carbolines as angiogenesis inhibitors” (Journal of Enzyme Inhibition and Medicinal Chemistry, 2019)
Read-outs that look alike come from different tables or passages of the source.

What was measured:
[1] = tested on: BGC-823; assay: MTT cytotoxicity, gastric carcinoma cells; format: cell-based; settings: MTT assay, gastric carcinoma BGC-823, mean ± SD of at least three determinations
Experimental: (§1) Target compounds were assayed by the MTT method for cytotoxic activity, as described previously. The panel of cell lines included gastric carcinoma (BGC-823), liver carcinoma (HepG2), breast carcinoma (MCF-7), colon carcinoma (HT-29), esophageal carcinoma (Eca-109), and Lewis lung carcinoma (LLC). Growth inhibition rates were calculated with the following equitation: Inhibition ratio (%)= ODcompd−ODblank/ODDMSO−ODblank×100% . Half maximal inhibitory concentration (IC50) of each compound was calculated using software Graph-Pad Prism (version 6.0).
(§2) All the 24 novel synthesized N^9-heterobivalent β-carbolines (5a-x) were screened for their in vitro cytotoxic activities against six different cancer cell lines, namely BGC-823 (gastric carcinoma), HepG2 (liver carcinoma), MCF-7 (breast carcinoma), HT-29 (colon carcinoma), Eca-109 (esophageal carcinoma) and LLC (Lewis lung carcinoma). The IC50 values were the average of at least three independent experiments.

[2] = tested on: HepG2; assay: MTT cytotoxicity, liver carcinoma cells; format: cell-based; settings: MTT assay, liver carcinoma HepG2, mean ± SD of at least three determinations
Experimental: as §1, §2

[3] = tested on: MCF-7; assay: MTT cytotoxicity, breast carcinoma cells; format: cell-based; settings: MTT assay, breast carcinoma MCF-7, mean ± SD of at least three determinations
Experimental: as §1, §2

[4] = tested on: HT-29; assay: MTT cytotoxicity, colon carcinoma cells; format: cell-based; settings: MTT assay, colon carcinoma HT-29, mean ± SD of at least three determinations
Experimental: as §1, §2

[5] = tested on: Eca-109; assay: MTT cytotoxicity, esophageal carcinoma cells; format: cell-based; settings: esophageal carcinoma Eca-109, mean ± SD of at least three determinations
Experimental: as §1, §2

[6] = tested on: LLC; assay: MTT cytotoxicity, Lewis lung carcinoma cells; format: cell-based; settings: MTT assay, mean ± SD of at least three determinations
Experimental: as §1, §2

[7] = tested on: six tumor cell lines (BGC-823, HepG2, MCF-7, HT-29, Eca-109, LLC); assay: MTT cytotoxicity, panel of six tumour cell lines (summary statements); format: cell-based; settings: MTT assay, statement over all cell lines tested; read-out: IC50 against the tested six tumor cell lines
Experimental: as §1, §2

[8] = Homo sapiens, ECa-109, MTT assay

Row | SMILES | IC50 [1] [µM] | IC50 [2] [µM] | IC50 ([3]; read-out: IC50 (μM) ±SD MCF7) [µM] | IC50 [4] [µM] | IC50 ([5]; MTT assay) [µM] | IC50 [6] [µM] | IC50 ([1]; Homo sapiens) [µM] | IC50 ([2]; Homo sapiens) [µM] | IC50 ([3]; Homo sapiens, MCF7) [µM] | IC50 ([4]; Homo sapiens) [µM] | IC50 [5, 8] [µM] | IC50 ([6]; Lewis lung carcinoma) [µM] | melting point [°C] | IC50 [7] [µM]
1 | N.N.[Cl][Pt][Cl] [Cisplatin, reference compound] | 11.6 ± 0.7 | 14.8 ± 0.4 | 12.4 ± 0.7 | 26.8 ± 1.4 | 8.9 ± 0.6 | 7.6 ± 0.4 | – | – | – | – | – | – | – | –
2 | c1cncc(-c2nccc3c4ccccc4n(CCCCn4c5ccccc5c5ccncc54)c23)c1 [Compound 5a, 1–(3-pyridyl)-9–(4-(β-carboline-9-yl)butyl)-β-carboline] | – | – | – | – | – | – | > 100 | 39.1 ± 5.4 | > 100 | > 100 | > 100 | > 100 | 173.3 to 175.1 | –
3 | Cc1nccc2c3ccccc3n(CCCCCCn3c4ccccc4c4ccnc(-c5cccnc5)c43)c12 [Compound 5d, 1–(3-pyridyl)-9–(6-(1-methyl-β-carboline-9-yl)hexyl)-β-carboline] | – | – | – | – | 18.9 ± 3.1 | 14.5 ± 0.9 | > 100 | > 100 | > 100 | > 100 | < 20 | < 20 | 141.3 to 142.9 | –
4 | c1csc(-c2nccc3c4ccccc4n(CCCCn4c5ccccc5c5ccncc54)c23)c1 [Compound 5e, 1–(2-thienyl)-9–(4-(β-carboline-9-yl)butyl)-β-carboline] | – | – | – | – | – | – | > 100 | > 100 | > 100 | 18.1 ± 3.6 | > 100 | 32.3 ± 4.5 | 141.6 to 143.1 | –
5 | Cc1nccc2c3ccccc3n(CCCCn3c4ccccc4c4ccnc(-c5cccs5)c43)c12 [Compound 5f, 1–(2-thienyl)-9–(4-(1-methyl-β-carboline-9-yl)butyl)-β-carboline] | – | – | – | – | – | – | 38.8 ± 2.9 | > 100 | 46.6 ± 4.8 | 56.1 ± 4.2 | 64.1 ± 7.6 | – | 214.8 to 216 | –
6 | Cc1nccc2c3ccccc3n(CCCCCn3c4ccccc4c4ccnc(-c5cccs5)c43)c12 [Compound 5g, 1–(2-thienyl)-9–(5-(1-methyl-β-carboline-9-yl)pentyl)-β-carboline] | – | – | – | – | – | – | 97.6 ± 12.4 | 18.8 ± 2.3 | 75.5 ± 10.7 | 32.3 ± 5.3 | 30.8 ± 3.2 | 22.7 ± 1.4 | 158.4 to 159.2 | 18.8 to 97.6
7 | Cc1nccc2c3ccccc3n(CCCCCCn3c4ccccc4c4ccnc(-c5cccs5)c43)c12 [Compound 5h, 1–(2-thienyl)-9–(6-(1-methyl-β-carboline-9-yl)hexyl)-β-carboline] | – | – | – | – | – | – | > 100 | > 100 | 75.9 ± 9.4 | 47.8 ± 6.5 | 30.2 ± 3.4 | 30.2 ± 1.5 | 238.5 to 239.6 | –
8 | Cc1nccc2c3ccccc3n(CCCCCn3c4ccccc4c4ccnc(-c5ccccc5Cl)c43)c12 [Compound 5j, 1–(2-chlorophenyl)-9–(5-(1-methyl-β-carboline-9-yl)pentyl)-β-carboline] | – | – | – | – | 18.6 ± 2.1 | 16.6 ± 3.1 | > 100 | > 100 | 46.8 ± 3.7 | 24.1 ± 2.2 | < 20 | < 20 | 169.1 to 171.2 | –
9 | COc1ccc(-c2nccc3c4ccccc4n(CCCCn4c5ccccc5c5ccnc(-c6cccnc6)c54)c23)cc1 [Compound 5k, 1–(4-methoxyphenyl)-9–(4-(1–(3-pyridyl)-β-carboline-9-yl)butyl)-β-carboline] | – | – | – | – | – | – | > 100 | > 100 | > 100 | > 100 | > 100 | > 100 | 241.2 to 242.4 | –
10 | COc1ccc(-c2nccc3c4ccccc4n(CCCCn4c5ccccc5c5ccnc(-c6cccnc6)c54)c23)cc1OC [Compound 5l, 1–(3,4-dimethoxyphenyl)-9–(4-(1–(3-pyridyl)-β-carboline-9-yl)butyl)-β-carboline] | – | – | – | – | – | – | > 100 | 79.5 ± 12.3 | > 100 | 91.1 ± 10.6 | 93.2 ± 7.1 | 46.8 ± 6.4 | 239.8 to 240.5 | –
11 | COc1cc(-c2nccc3c4ccccc4n(CCCCn4c5ccccc5c5ccnc(-c6cccnc6)c54)c23)cc(OC)c1OC [Compound 5m, 1–(3,4,5-trimethoxyphenyl)-9–(4-(1–(3-pyridyl)-β-carboline-9-yl)butyl)-β-carboline] | – | – | – | – | – | – | > 100 | 85.1 ± 11.6 | > 100 | > 100 | 70.9 ± 8.4 | > 100 | 231 to 232.3 | –
12 | Clc1ccccc1-c1nccc2c3ccccc3n(CCCCn3c4ccccc4c4ccnc(-c5cccnc5)c43)c12 [Compound 5n, 1–(2-chlorophenyl)-9–(4-(1–(3-pyridyl)-β-carboline-9-yl)butyl)-β-carboline] | – | – | – | – | – | – | > 100 | > 100 | 86.9 ± 15.3 | 72.2 ± 5.2 | > 100 | > 100 | 177.6 to 178.9 | –
13 | COc1ccc(-c2nccc3c4ccccc4n(CCCCn4c5ccccc5c5ccnc(-c6cccs6)c54)c23)cc1 [Compound 5o, 1–(4-methoxyphenyl)-9–(4-(1–(2-thienyl)-β-carboline-9-yl)butyl)-β-carboline] | – | – | – | – | – | – | > 100 | > 100 | > 100 | > 100 | > 100 | 96.8 ± 9.8 | 232.5 to 233.3 | –
14 | COc1ccc(-c2nccc3c4ccccc4n(CCCCn4c5ccccc5c5ccnc(-c6cccs6)c54)c23)cc1OC [Compound 5p, 1–(3,4-dimethoxyphenyl)-9–(4-(1–(2-thienyl)-β-carboline-9-yl)butyl)-β-carboline] | – | – | – | – | – | – | > 100 | > 100 | > 100 | > 100 | > 100 | > 100 | 217.2 to 218.4 | –
15 | COc1cc(-c2nccc3c4ccccc4n(CCCCn4c5ccccc5c5ccnc(-c6cccs6)c54)c23)cc(OC)c1OC [Compound 5q, 1–(3,4,5-trimethoxyphenyl)-9–(4-(1–(2-thienyl)-β-carboline-9-yl)butyl)-β-carboline] | – | – | – | – | – | – | > 100 | > 100 | > 100 | > 100 | > 100 | > 100 | 226.5 to 227.8 | –
16 | Clc1ccccc1-c1nccc2c3ccccc3n(CCCCn3c4ccccc4c4ccnc(-c5cccs5)c43)c12 [Compound 5r, 1–(2-chlorophenyl)-9–(4-(1–(2-thienyl)-β-carboline-9-yl)butyl)-β-carboline] | – | – | – | – | – | – | > 100 | > 100 | 60.7 ± 4.8 | 96.2 ± 5.1 | 96.7 ± 11.9 | > 100 | 225.4 to 227.2 | –
17 | COc1ccc2c3ccnc(C)c3n(CCCCn3c4ccccc4c4ccnc(C)c43)c2c1 [Compound 5s, 7-methoxy-1-methyl-9–(4-(1-methyl-β-carboline-9-yl)butyl)-β-carboline] | – | – | – | – | – | – | 17.9 ± 1.1 | 37.6 ± 5.8 | 36.4 ± 2.1 | 11.1 ± 0.8 | 11.3 ± 2.7 | 6.2 ± 0.6 | 188.7 to 189.4 | –
18 | COc1ccc2c3ccnc(C)c3n(CCCCn3c4ccccc4c4ccnc(-c5cccnc5)c43)c2c1 [Compound 5u, 7-methoxy-1-methyl-9–(4-(1–(3-pyridyl)-β-carboline-9-yl)butyl)-β-carboline] | – | – | – | – | – | – | 39.1 ± 2.4 | 26.8 ± 2.8 | 23.9 ± 0.7 | 15.1 ± 3.1 | 25.2 ± 5.5 | 12.2 ± 2.3 | 163.8 to 164.5 | –
19 | COc1ccc2c3ccnc(C)c3n(CCCCCn3c4ccccc4c4ccnc(-c5cccnc5)c43)c2c1 [Compound 5v, 7-methoxy-1-methyl-9–(5-(1–(3-pyridyl)-β-carboline-9-yl)pentyl)-β-carboline] | – | – | – | – | – | – | 23.2 ± 1.5 | 31.1 ± 3.4 | 18.7 ± 0.5 | 13.5 ± 2.2 | 13.2 ± 3.6 | 11.8 ± 1.8 | 183.6 to 184.9 | –
20 | COc1ccc2c3ccnc(C)c3n(CCCCCn3c4ccccc4c4ccnc(-c5cccs5)c43)c2c1 [Compound 5x, 7-methoxy-1-methyl-9–(5-(1–(2-thienyl)-β-carboline-9-yl)pentyl)-β-carboline] | – | – | – | – | – | – | > 100 | > 100 | 41.6 ± 5.3 | > 100 | 46.7 ± 6.9 | 12.2 ± 3.7 | 196.1 to 197.4 | –
